Experimental findings from the OligoGym collection are described below.

These antisense oligonucleotides have a phosphorothioate backbone; sugars and methylation of C are not fully specified. A value given as a limit tells only on which side of the number the result lay.

What all share (details): ASO
Series [1] has as its target PYGL.
In series [2] the target is AKT1.
Series [3] has as its target GNAI1.
Further: test concentration or dose not given here.

With CTTGACCAGCGTGAAGTGCA, the remaining target (mRNA or protein) (fraction of control) in series [1] was determined as 0.48.

For the sequence CTTTGACTTCTTTGACCC, the remaining target (mRNA or protein) (fraction of control) in series [2] turned out to be 0.32.

CTTTTACCAGATTCACCA: in series [3], the remaining target (mRNA or protein) (fraction of control) turned out to be 0.96.

On to GAAGTCCTTGAATACTTTAG, for which, in series [1], the remaining target (mRNA or protein) (fraction of control) turned out to be 0.4.

Consider GATAGTTTTCTTCCCTAC, for which the remaining target (mRNA or protein) (fraction of control) in series [2] was ≥ 1.

In turn, GCAGGCAGCAAGTCTCCCAA returned a remaining target (mRNA or protein) (fraction of control) in series [1] of 0.29.

For GCATTCGGTTCATTTCTT, the remaining target (mRNA or protein) (fraction of control) in series [3] was determined as 0.58.

Take GCCACGATGACTTCCTTC: the remaining target (mRNA or protein) (fraction of control) in series [2] is 0.4.

For the sequence GCCGTATCCATAGGCTGCAA, the remaining target (mRNA or protein) (fraction of control) in series [1] is ≥ 1.

GCCGTGAACTCCTCATCA gave a remaining target (mRNA or protein) (fraction of control) in series [2] of 0.44.

On to GCCTCTCCATCCCTCCAA, for which, in series [2], the remaining target (mRNA or protein) (fraction of control) came to 0.24.

The sequence GCGCGAAGTAGTAGTCGCGG returned a remaining target (mRNA or protein) (fraction of control) in series [1] of 0.8.

Turning to GCGGCTGGCTGACAGAGT, the remaining target (mRNA or protein) (fraction of control) in series [2] was determined as 0.39.

Sequence GCTGCTGTGTGCCTGCCA registered a remaining target (mRNA or protein) (fraction of control) in series [2] of 0.62.

Consider GGAGAACAAACTGGATGA, for which, in series [2], the remaining target (mRNA or protein) (fraction of control) is ≥ 1.

In the case of GGCAGCCCCTTTGACTTC, the remaining target (mRNA or protein) (fraction of control) in series [2] is 0.47.

In series [2], GGCTTGAAGGGTGGGCTG showed a remaining target (mRNA or protein) (fraction of control) of 0.59.

In turn, GGGCGGGACTTCTCCCAAGG displayed a remaining target (mRNA or protein) (fraction of control) in series [1] of 0.79.

Turning to GGTCAGGTGGTGTGATGG, the remaining target (mRNA or protein) (fraction of control) in series [2] is ≥ 1.

GGTGTTGACAGTGTTATTCA showed a remaining target (mRNA or protein) (fraction of control) in series [1] of 0.56.

As for GTATAATGGATGTATCTG, in series [3], the remaining target (mRNA or protein) (fraction of control) is 0.86.

GTGCCGCAAAAGGTCTTC yielded a remaining target (mRNA or protein) (fraction of control) in series [2] of 0.34.

Turning to GTTGAGTCGGGATGTAAT, the remaining target (mRNA or protein) (fraction of control) in series [3] is ≥ 1.

TAAAACCCGCAGGATAGT came in with a remaining target (mRNA or protein) (fraction of control) in series [2] of 0.26.

Take TAAAAGAGACCACAATCT: in series [3], the remaining target (mRNA or protein) (fraction of control) worked out at 0.81.

In turn, TAATAGTCTGTCATTCAG displayed a remaining target (mRNA or protein) (fraction of control) in series [3] of 0.95.

For the sequence TACCTGCCATCCATCTCGGA, the remaining target (mRNA or protein) (fraction of control) in series [1] is 0.15.

Turning to TACTCAGGTGTGCCGCAA, in series [2], the remaining target (mRNA or protein) (fraction of control) was found to be 0.34.

Regarding TACTCCCCTCGTTTGTGC, the remaining target (mRNA or protein) (fraction of control) in series [2] is ≥ 1.

TAGATAAGGGCTGTAATG registered a remaining target (mRNA or protein) (fraction of control) in series [3] of 0.87.

Sequence TCAAAATACCTGGTGTCA returned a remaining target (mRNA or protein) (fraction of control) in series [2] of 0.49.

For the sequence TCACCAAAGTCTATCTTC, in series [3], the remaining target (mRNA or protein) (fraction of control) is ≥ 1.

Consider TCACCCTAAAATCCTAAG, for which the remaining target (mRNA or protein) (fraction of control) in series [3] was ≥ 1.

Sequence TCATATTGCCTGTCCCCGAG yielded a remaining target (mRNA or protein) (fraction of control) in series [1] of 0.18.

Sequence TCATCTTACTCCGCTCCA came in with a remaining target (mRNA or protein) (fraction of control) in series [3] of 0.66.

As to TCATGATAAAATAGCATGTT, the remaining target (mRNA or protein) (fraction of control) in series [1] was ≥ 1.

Take TCATTTCTTCATCTTCAG: in series [3], the remaining target (mRNA or protein) (fraction of control) is ≥ 1.

As to TCCAACATTAAAGTCTCTGA, the remaining target (mRNA or protein) (fraction of control) in series [1] came out at 0.62.

In turn, TCCAGCGCCCCACCAGGTGG gave a remaining target (mRNA or protein) (fraction of control) in series [1] of 0.44.

For the sequence TCCCCATAGCCCTAATGA, the remaining target (mRNA or protein) (fraction of control) in series [3] worked out at 0.21.

Regarding TCCCGGTGTTGGTGTGTTCT, in series [1], the remaining target (mRNA or protein) (fraction of control) amounted to 0.63.

Consider TCCTCCTCCTCCTGCTTC, for which the remaining target (mRNA or protein) (fraction of control) in series [2] worked out at 0.91.

The sequence TCTGTCAGCGGTTCGCCCAT gave a remaining target (mRNA or protein) (fraction of control) in series [1] of 0.69.

Consider TCTTTTATTGAGGTCTTC, for which the remaining target (mRNA or protein) (fraction of control) in series [3] is ≥ 1.

TGATCCAAAGGCAGGTGT yielded a remaining target (mRNA or protein) (fraction of control) in series [3] of 0.27.

As for TGCCACGTTCTCCACGCCCA, the remaining target (mRNA or protein) (fraction of control) in series [1] was determined as 0.18.

Consider TGCCATCATTCTTGAGGA, for which the remaining target (mRNA or protein) (fraction of control) in series [2] was determined as 0.35.

Sequence TGGAGCCAAACTTGGAGGCT returned a remaining target (mRNA or protein) (fraction of control) in series [1] of 0.32.

TGTGTCCTTTCTTTTATT returned a remaining target (mRNA or protein) (fraction of control) in series [3] of 0.63.

Sequence TTAAGAACATTTCAATAA returned a remaining target (mRNA or protein) (fraction of control) in series [3] of 0.99.

On to TTATGTTATTTCCAAAGC, for which the remaining target (mRNA or protein) (fraction of control) in series [3] was 0.87.

Sequence TTCAACCTCCCCATAGCC returned a remaining target (mRNA or protein) (fraction of control) in series [3] of 0.81.

Take TTCCAACCATAGGGTCATTG: the remaining target (mRNA or protein) (fraction of control) in series [1] came out at 0.27.

TTCTGGTTGAGCTCCCATGC came in with a remaining target (mRNA or protein) (fraction of control) in series [1] of 0.52.

For the sequence TTCTGTCCAAGTCATTCA, the remaining target (mRNA or protein) (fraction of control) in series [3] came out at 0.64.

Consider TTGTCAATTTGATCAATGAC, for which the remaining target (mRNA or protein) (fraction of control) in series [1] was 0.62.

In series [3], TTTCCACAATCTCTTTAT yielded a remaining target (mRNA or protein) (fraction of control) of 0.92.

As for TTTGAAAGTAAAATGGGT, the remaining target (mRNA or protein) (fraction of control) in series [3] is ≥ 1.

As to TTTTCTTCCCTACCCCGC, the remaining target (mRNA or protein) (fraction of control) in series [2] was 0.36.
